Assay [1] addresses T1, recombinant F508del V470 CFTR in Fischer rat thyroid (FRT) cells (Homo sapiens, UniProt P13569, DEL508-508).
T1 construct: expressed in transfected cells
The assay is described as follows: FRT ion flux assay of F508del CFTR potentiation. It is filed as cell-based. The conditions noted are these: FRT cells expressing F508del V470 CFTR, forskolin 20 uM, 27° C. pre-incubation. The essentials: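 Potentiation read as YFP quench ~21 s after iodide buffer addition, as second/initial fluorescence ratio normalised between DMSO (0%) and reference potentiator (100%).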

The target in assay [2] is T2, CFTR in F508del/F508del primary CF hBE cells (Homo sapiens, UniProt P13569, DEL508-508).
T2 construct: Primary cystic fibrosis human bronchial epithelial (CF hBE) cells were expanded and cultured; endogenous in cells; host or cells: primary CF human bronchial epithelial cells, genotype F508del/F508del
T2 sequence (P13569 with tags, fused parts or gaps DEL508-508): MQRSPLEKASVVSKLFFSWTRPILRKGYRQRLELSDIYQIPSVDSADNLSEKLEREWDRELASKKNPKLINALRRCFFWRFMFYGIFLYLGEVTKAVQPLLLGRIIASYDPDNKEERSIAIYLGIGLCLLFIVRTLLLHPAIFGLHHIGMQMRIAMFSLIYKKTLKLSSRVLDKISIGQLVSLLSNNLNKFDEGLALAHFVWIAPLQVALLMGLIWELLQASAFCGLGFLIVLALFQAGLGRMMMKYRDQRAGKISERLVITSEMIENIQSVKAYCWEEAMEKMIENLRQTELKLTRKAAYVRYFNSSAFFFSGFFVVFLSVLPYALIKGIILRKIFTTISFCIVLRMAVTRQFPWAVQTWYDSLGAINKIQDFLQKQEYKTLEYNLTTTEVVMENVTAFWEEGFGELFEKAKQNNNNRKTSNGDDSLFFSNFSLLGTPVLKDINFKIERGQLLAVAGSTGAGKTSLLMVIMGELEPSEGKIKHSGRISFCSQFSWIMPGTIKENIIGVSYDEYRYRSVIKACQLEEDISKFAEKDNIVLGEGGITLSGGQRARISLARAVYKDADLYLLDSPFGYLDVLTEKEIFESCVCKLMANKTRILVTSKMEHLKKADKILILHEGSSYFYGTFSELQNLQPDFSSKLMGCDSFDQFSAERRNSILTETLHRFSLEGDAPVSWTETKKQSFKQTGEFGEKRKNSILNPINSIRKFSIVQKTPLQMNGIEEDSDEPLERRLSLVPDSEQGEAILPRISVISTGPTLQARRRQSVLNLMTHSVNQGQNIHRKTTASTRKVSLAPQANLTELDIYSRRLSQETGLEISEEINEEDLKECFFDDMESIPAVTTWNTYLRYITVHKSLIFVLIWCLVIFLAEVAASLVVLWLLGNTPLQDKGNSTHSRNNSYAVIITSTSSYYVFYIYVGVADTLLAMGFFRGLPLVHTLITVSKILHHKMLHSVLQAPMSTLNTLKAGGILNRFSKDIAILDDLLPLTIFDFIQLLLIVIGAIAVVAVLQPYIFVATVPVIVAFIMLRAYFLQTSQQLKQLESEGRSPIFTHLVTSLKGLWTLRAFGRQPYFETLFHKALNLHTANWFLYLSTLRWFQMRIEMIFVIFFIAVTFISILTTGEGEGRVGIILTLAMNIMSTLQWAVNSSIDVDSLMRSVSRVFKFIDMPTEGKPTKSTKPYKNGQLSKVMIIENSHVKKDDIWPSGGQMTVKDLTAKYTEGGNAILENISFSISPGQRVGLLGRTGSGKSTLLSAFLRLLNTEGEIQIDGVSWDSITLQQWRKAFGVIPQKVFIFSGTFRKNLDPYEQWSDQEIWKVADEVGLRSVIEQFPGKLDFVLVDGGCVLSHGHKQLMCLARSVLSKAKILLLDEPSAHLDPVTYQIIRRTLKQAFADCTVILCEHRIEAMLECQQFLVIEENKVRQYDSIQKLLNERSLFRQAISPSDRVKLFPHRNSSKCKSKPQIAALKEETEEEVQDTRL
The experiment in a line: Ussing chamber electrophysiology assay of CFTR potentiation in F508del/F508del CF bronchial epithelial cells (27° C.). Format: cell-based. In short, it runs like this:
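Short-circuit current was recorded under zero-voltage clamp across primary CF bronchial epithelia cultured >30 days at air/liquid interface, bathed apically and basolaterally in HEPES-buffered saline. Sequential additions: amiloride (30 uM), forskolin (10 uM), compound at 4 increasing levels, CFTRinh-172 (20 uM). Responses normalised between DMSO (0%) and maximal positive-control potentiator (100%).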

T1 sequence (P13569 with tags, fused parts or gaps DEL508-508): as above

Regarding `CCC(c1cn(-c2cccc(F)c2F)nn1)n1cc(-c2cc(F)cnc2OC)c2c(N)ncnc21` (single isomer, unassigned; enantiomer 2) [Example 170, 7-{1-[1-(2,3-Difluorophenyl)-1H-1,2,3-triazol-4-yl]propyl}-5-(5-fluoro-2-methoxypyridin-3-yl)-7H-pyrrolo[2,3-d]pyrimidin-4-amine, enantiomer 2], the EC50 in assay [1] amounted to 0.214 µM; in assay [2] it was 0.0488 µM.
The matching figures for `CCC(c1cn(-c2cc(F)ccc2F)nn1)n1cc(-c2cc(F)cnc2OC)c2c(N)ncnc21` (single isomer, unassigned; enantiomer 2) [Example 172, 7-{1-[1-(2,5-Difluorophenyl)-1H-1,2,3-triazol-4-yl]propyl}-5-(5-fluoro-2-methoxypyridin-3-yl)-7H-pyrrolo[2,3-d]pyrimidin-4-amine, enantiomer 2]: 0.203 µM and 0.0776 µM.
Turning to `CCC(c1cnn(-c2ccccc2F)c1)n1cc(-c2cnc(C(F)(F)F)nc2)c2c(N)ncnc21` (single isomer, unassigned; enantiomer 2) [Example 176, 7-{(1-[1-(2-Fluorophenyl)-1H-pyrazol-4-yl]propyl}-5-[2-(trifluoromethyl)pyrimidin-5-yl]-7H-pyrrolo[2,3-d]pyrimidin-4-amine, enantiomer 2], the EC50 amounted to 0.204 µM in assay [1] and 0.106 µM in assay [2].
As to `CC(c1cc(-c2ccccc2F)no1)n1cc(-c2ccc(Cl)cc2)c2c(N)ncnc21` (single isomer, unassigned; enantiomer 2) [Example 182, (−)-5-(4-Chlorophenyl)-7-{1-[3-(2-fluorophenyl)-1,2-oxazol-5-yl]ethyl}-7H-pyrrolo[2,3-d]pyrimidin-4-amine, enantiomer 2], the results for the EC50 in assay [1] and in assay [2] were 0.468 µM and 0.446 µM, respectively.
As to `COc1ncncc1-c1cn(C(c2cn(-c3ccccc3F)nn2)C2CC2)c2ncnc(N)c12` (single isomer, unassigned; enantiomer 2) [Example 300, (−) 7-{Cyclopropyl[1-(2-fluorophenyl)-1H-1,2,3-triazol-4-yl]methyl}-5-(4-methoxypyrimidin-5-yl)-7H-pyrrolo[2,3-d]pyrimidin-4-amine, enantiomer 2], the EC50 in assay [1] turned out to be 0.154 µM; in assay [2], 0.453 µM.
Taken in the same sequence, the figures for `CCC(c1cn(-c2ccccc2F)nn1)n1cc(-c2cncnc2OC)c2c(N)nc(C)nc21` (single isomer, unassigned; enantiomer 2) [Example 304, (−) 7-{1-[1-(2-fluorophenyl)-1H-1,2,3-triazol-4-yl]propyl}-5-(4-methoxypyrimidin-5-yl)-2-methyl-7H-pyrrolo[2,3-d]pyrimidin-4-amine, enantiomer 2] were 0.19 µM and 0.135 µM.
Taken in the same sequence, the figures for `CCC(c1cn(-c2cccc(F)c2F)nn1)n1cc(-c2cncnc2OC)c2c(N)ncnc21` (single isomer, unassigned; enantiomer 2) [Example 306, (+) 7-{1-[1-(2,3-Difluorophenyl)-1H-1,2,3-triazol-4-yl]propyl}-5-(4-methoxypyrimidin-5-yl)-7H-pyrrolo[2,3-d]pyrimidin-4-amine, enantiomer 2] were 0.0222 µM and 0.0261 µM.
With `CCC(c1cn(-c2cc(F)ccc2F)nn1)n1cc(-c2cncnc2OC)c2c(N)ncnc21` (single isomer, unassigned; enantiomer 2) [Example 308, (−) 7-{1-[1-(2,5-Difluorophenyl)-1H-1,2,3-triazol-4-yl]propyl}-5-(4-methoxypyrimidin-5-yl)-7H-pyrrolo[2,3-d]pyrimidin-4-amine, enantiomer 2], the EC50 in assay [1] was found to be 0.362 µM; in assay [2], 0.43 µM.
As for `CCC(c1cn(-c2cc(F)cc(F)c2)nn1)n1cc(-c2cnc(C(F)(F)F)nc2)c2c(N)ncnc21` (single isomer, unassigned; enantiomer 2) [Example 312, 7-{1-[1-(3,5-Difluorophenyl)-1H-1,2,3-triazol-4-yl]propyl}-5-[2-(trifluoromethyl)pyrimidin-5-yl]-7H-pyrrolo[2,3-d]pyrimidin-4-amine, enantiomer 2], the EC50 came to 1.02 µM in assay [1] and 0.279 µM in assay [2].
In the case of `CCC(c1cn(-c2ccc(F)c(F)c2)nn1)n1cc(-c2cnc(C(F)F)nc2)c2c(N)ncnc21` (single isomer, unassigned; enantiomer 2) [Example 313, 5-[2-(Difluoromethyl)pyrimidin-5-yl]-7-{1-[1-(3,4-difluorophenyl)-1H-1,2,3-triazol-4-yl]propyl}-7H-pyrrolo[2,3-d]pyrimidin-4-amine, enantiomer 2], the EC50 in assay [1] amounted to 0.0749 µM; in assay [2] it was 0.131 µM.
Turning to `CCC(c1cn(-c2ccccc2F)nn1)n1cc(C2CC2)c2c(N)ncnc21` (single isomer, unassigned; enantiomer 2) [Example 316, (+) 5-Cyclopropyl-7-{1-[1-(2-fluorophenyl)-1H-1,2,3-triazol-4-yl]propyl}-7H-pyrrolo[2,3-d]pyrimidin-4-amine, enantiomer 2], the EC50 in assay [1] is 0.754 µM; in assay [2] it was 0.541 µM.
Turning to `CC(c1cn(-c2ccc(F)cc2F)nn1)n1c(C#N)c(-c2ccc(OC3CC3)nc2)c2c(N)ncnc21` (single isomer, unassigned; enantiomer 2) [Example 321, 4-Amino-5-[6-(cyclopropyloxy)pyridin-3-yl]-7-{1-[1-(2,4-difluorophenyl)-1H-1,2,3-triazol-4-yl]ethyl}-7H-pyrrolo[2,3-d]pyrimidine-6-carbonitrile, enantiomer 2], the EC50 in assay [1] was 0.359 µM; in assay [2], 0.141 µM.
For the compound `CC(C)n1cc(Cn2c(C#N)c(-c3ccc(Cl)cc3)c3c(N)ncnc32)cn1` [Example 25, 4-Amino-5-(4-chlorophenyl)-7-{[1-(propan-2-yl)-1H-pyrazol-4-yl]methyl}-7H-pyrrolo[2,3-d]pyrimidine-6-carbonitrile], the EC50 is 0.0959 µM in assay [1] and 0.041 µM in assay [2].
For `N#Cc1c(-c2ccc(Cl)cc2)c2c(N)ncnc2n1Cc1cn(-c2ccccc2F)nn1` [Example 26, 4-Amino-5-(4-chlorophenyl)-7-{[1-(2-fluorophenyl)-1H-1,2,3-triazol-4-yl]methyl}-7H-pyrrolo[2,3-d]pyrimidine-6-carbonitrile], the EC50 is 0.13 µM in assay [1] and 0.0357 µM in assay [2].
`N#Cc1c(-c2cnc(C(F)(F)F)nc2)c2c(N)ncnc2n1Cc1cnn(-c2ccc(F)cc2F)c1` [Example 29, 4-Amino-7-{[1-(2,4-difluorophenyl)-1H-pyrazol-4-yl]methyl}-5-[2-(trifluoromethyl)pyrimidin-5-yl]-7H-pyrrolo[2,3-d]pyrimidine-6-carbonitrile]: the EC50 in assay [1] turned out to be 0.00233 µM; in assay [2], 0.00224 µM.
`N#Cc1c(-c2cnc(C(F)F)nc2)c2c(N)ncnc2n1Cc1cnn(-c2ccccc2F)c1` [Example 30, 4-Amino-5-[2-(difluoromethyl)pyrimidin-5-yl]-7-{[1-(2-fluorophenyl)-1H-pyrazol-4-yl]methyl}-7H-pyrrolo[2,3-d]pyrimidine-6-carbonitrile]: the EC50 in assay [1] worked out at 0.00059 µM; in assay [2] it was 0.00203 µM.
For the compound `N#Cc1c(-c2cnc(C(F)(F)F)nc2)c2c(N)ncnc2n1Cc1cn(-c2ccccc2F)nn1` [Example 37], the EC50 in assay [1] was found to be 0.0135 µM; in assay [2], 0.0163 µM.

Usually EC50 stands for the concentration at which the effect is half-maximal.

The values above are taken from patent US12612409B2, “Pyrrolopyrimidines as CFTR potentiators” (Cystic Fibrosis Foundation, priority 2016, dated 2026).
